Earlier results, collected in PubChem BioAssay AID1259409 (Chemical Carcinogenesis Research Information System (CCRIS), 2018).
Values joined by “and” are separate entries in the source; they are usually repeats but may differ in a detail not shown here. Equal entries are not always repeated.

Tested on: rodent chemically induced tumor inhibition, incidence and multiplicity
Test: CCRIS tumor inhibitor studies
Settings: Route [Inhibitor]: ORAL
Text: The CCRIS database contains chemical records with carcinogenicity, mutagenicity, tumor promotion, and tumor inhibition test results. It was developed by the National Cancer Institute (NCI). Data are derived from studies cited in primary journals, current awareness tools, NCI reports, and other sources. Test results have been reviewed by experts in carcinogenesis and mutagenesis.
CCRIS provides historical information from the years 1985 - 2011. It is no longer updated.
This is an archive assay for CCRIS tumor inhibitor studies.

## NC(=O)c1cccnc1
Carcinogen: 3'-METHYL-4-DIMETHYLAMINOAZOBENZENE, 55-80-1, Dose [Inhibitor]: 0.29% IN DIET DAILY FOR 4 WK STARTING 4 WK AFTER THE START OF CARCINOGEN TREATMENT (STUDY DURATION: 20 WK), Species: RAT, Target Tissue: Type of Lesion: LIVER: TUMOR, Dose [Carcinogen]: 0.064% IN DIET DAILY FOR 4 WK THEN A 4 WK CARCINOGEN-FREE PERIOD FOLLOWED BY 0.048% FOR AN ADDITIONAL 4 WK, Promoter: NONE USED
  tumour outcome (control, treated, inhibition, significance): 4/10 (40%), 10/11 (91%), -128%, not calculated
Carcinogen: 3'-METHYL-4-DIMETHYLAMINOAZOBENZENE, 55-80-1, Dose [Inhibitor]: 0.29% IN DIET DAILY FOR 4 WK STARTING AFTER COMPLETION OF CARCINOGEN TREATMENT (STUDY DURATION: 20 WK), Species: RAT, Target Tissue: Type of Lesion: LIVER: TUMOR, Dose [Carcinogen]: 0.064% IN DIET DAILY FOR 4 WK, Promoter: NONE USED
  tumour outcome (control, treated, inhibition, significance): 7/15 (47%), 0/17 (0%), 100%, not calculated
Carcinogen: 3'-METHYL-4-DIMETHYLAMINOAZOBENZENE, 55-80-1, Dose [Inhibitor]: 0.29% IN DIET DAILY FOR 4 WK STARTING AFTER COMPLETION OF THE FIRST 4 WK OF CARCINOGEN TREATMENT (STUDY DURATION: 20 WK), Species: RAT, Target Tissue: Type of Lesion: LIVER: TUMOR, Dose [Carcinogen]: 0.064% IN DIET DAILY FOR 4 WK BEFORE AND ANOTHER 4 WK AFTER AGENT TREATMENT, Promoter: NONE USED
  tumour outcome (control, treated, inhibition, significance): 7/15 (47%), 9/14 (64%), -36%, not calculated and 7/9 (78%), 6/9 (67%), 14%, not calculated
Carcinogen: 7,12-DIMETHYLBENZ[A]ANTHRACENE, 57-97-6, Dose [Inhibitor]: 0.2% IN DRINKING WATER DAILY STARTING 4 WK BEFORE CARCINOGEN TREATMENT AND CONTINUING FOR DURATION OF THE STUDY (STUDY D, Species: MOUSE, Strain/Sex: 101/MALE, FEMALE, Target Tissue: Type of Lesion: SKIN: PAPILLOMA, Dose [Carcinogen]: 225 UG IN 0.15 ML ACETONE ONCE, Promoter: CROTON OIL, 8001-28-3
  tumour outcome (control, treated, inhibition, significance): 17/19 (89%), 17/19 (89%), 0%, not calculated
Carcinogen: N-NITROSOBIS(2-OXOPROPYL)AMINE, 60599-38-4, Dose [Inhibitor]: 0, 0.2% IN DRINKING WATER FOR 49 WK BEGINNING POST CARCINOGEN TREATMENT (STUDY DURATION: 52 WK), Species: HAMSTER, Strain/Sex: SYRIAN/FEMALE, Target Tissue: Type of Lesion: PANCREAS: ADENOCARCINOMA, Dose [Carcinogen]: 10 MG/KG 1/WK FOR 3 WK, Promoter: NONE USED
  tumour outcome (control, treated, inhibition, significance): 18/30 (60%), 18/29 (62%), -3%, not significant
Carcinogen: N-NITROSOBIS(2-OXOPROPYL)AMINE, 60599-38-4, Dose [Inhibitor]: 0, 0.2% IN DRINKING WATER FOR 49 WK POST CARCINOGEN TREATMENT (STUDY DURATION: 52 WK), Species: HAMSTER, Strain/Sex: SYRIAN GOLDEN/FEMALE, Target Tissue: Type of Lesion: KIDNEY: NEPHROBLASTOMA, Dose [Carcinogen]: 10 MG/KG BW 1/WK FOR FIRST 3 WK OF STUDY DURATION, Promoter: NONE
  tumour outcome (control, treated, inhibition, significance): 2/30 (7%), 0/29 (0%), 100%, not significant
Carcinogen: N-NITROSOBIS(2-OXOPROPYL)AMINE, 60599-38-4, Dose [Inhibitor]: 0, 0.2% IN DRINKING WATER FOR 49 WK POST CARCINOGEN TREATMENT (STUDY DURATION: 52 WK), Species: HAMSTER, Strain/Sex: SYRIAN GOLDEN/FEMALE, Target Tissue: Type of Lesion: KIDNEY: RENAL CELL ADENOMA, Dose [Carcinogen]: 10 MG/KG BW 1/WK FOR FIRST 3 WK OF STUDY DURATION, Promoter: NONE
  outcome: 0/30 (0%), 1/29 (3%),-%, not significant
Carcinogen: N-NITROSOBIS(2-OXOPROPYL)AMINE, 60599-38-4, Dose [Inhibitor]: 0, 0.2% IN DRINKING WATER FOR 49 WK POST CARCINOGEN TREATMENT (STUDY DURATION: 52 WK), Species: HAMSTER, Strain/Sex: SYRIAN GOLDEN/FEMALE, Target Tissue: Type of Lesion: KIDNEY: RENAL CELL CARCINOMA, Dose [Carcinogen]: 10 MG/KG BW 1/WK FOR FIRST 3 WK OF STUDY DURATION, Promoter: NONE
  tumour outcome (control, treated, inhibition, significance): 1/30 (3%), 1/29 (3%), 0%, not significant
Carcinogen: N-NITROSOBIS(2-OXOPROPYL)AMINE, 60599-38-4, Dose [Inhibitor]: 0, 0.2% IN DRINKING WATER FOR 49 WK POST CARCINOGEN TREATMENT (STUDY DURATION: 52 WK), Species: HAMSTER, Strain/Sex: SYRIAN GOLDEN/FEMALE, Target Tissue: Type of Lesion: LIVER: CHOLANGIOCELLULAR ADENOMA, Dose [Carcinogen]: 10 MG/KG BW 1/WK FOR FIRST 3 WK OF STUDY DURATION, Promoter: NONE
  tumour outcome (control, treated, inhibition, significance): 1/30 (3%), 2/29 (7%), -133%, not significant
Carcinogen: N-NITROSOBIS(2-OXOPROPYL)AMINE, 60599-38-4, Dose [Inhibitor]: 0, 0.2% IN DRINKING WATER FOR 49 WK POST CARCINOGEN TREATMENT (STUDY DURATION: 52 WK), Species: HAMSTER, Strain/Sex: SYRIAN GOLDEN/FEMALE, Target Tissue: Type of Lesion: LIVER: CHOLANGIOCELLULAR CARCINOMA, Dose [Carcinogen]: 10 MG/KG BW 1/WK FOR FIRST 3 WK OF STUDY DURATION, Promoter: NONE
  outcome: 0/30 (0%), 5/29 (17%), -%, p<0.05
Carcinogen: N-NITROSOBIS(2-OXOPROPYL)AMINE, 60599-38-4, Dose [Inhibitor]: 0, 0.2% IN DRINKING WATER FOR 49 WK POST CARCINOGEN TREATMENT (STUDY DURATION: 52 WK), Species: HAMSTER, Strain/Sex: SYRIAN GOLDEN/FEMALE, Target Tissue: Type of Lesion: LIVER: CYSTADENOMA, Dose [Carcinogen]: 10 MG/KG BW 1/WK FOR FIRST 3 WK OF STUDY DURATION, Promoter: NONE
  outcome: 0/30 (0%), 0/29 (0%), 0%, not significant
Carcinogen: N-NITROSOBIS(2-OXOPROPYL)AMINE, 60599-38-4, Dose [Inhibitor]: 0, 0.2% IN DRINKING WATER FOR 49 WK POST CARCINOGEN TREATMENT (STUDY DURATION: 52 WK), Species: HAMSTER, Strain/Sex: SYRIAN GOLDEN/FEMALE, Target Tissue: Type of Lesion: LIVER: HEPATOCELLULAR ADENOMA, Dose [Carcinogen]: 10 MG/KG BW 1/WK FOR FIRST 3 WK OF STUDY DURATION, Promoter: NONE
  tumour outcome (control, treated, inhibition, significance): 2/30 (7%), 4/29 (14%), -100%, not significant
Carcinogen: N-NITROSOBIS(2-OXOPROPYL)AMINE, 60599-38-4, Dose [Inhibitor]: 0, 0.2% IN DRINKING WATER FOR 49 WK POST CARCINOGEN TREATMENT (STUDY DURATION: 52 WK), Species: HAMSTER, Strain/Sex: SYRIAN GOLDEN/FEMALE, Target Tissue: Type of Lesion: LIVER: HEPATOCELLULAR CARCINOMA, Dose [Carcinogen]: 10 MG/KG BW 1/WK FOR FIRST 3 WK OF STUDY DURATION, Promoter: NONE
  tumour outcome (control, treated, inhibition, significance): 2/30 (7%), 1/29 (3%), 57%, not significant
Carcinogen: N-NITROSOBIS(2-OXOPROPYL)AMINE, 60599-38-4, Dose [Inhibitor]: 0, 0.2% IN DRINKING WATER FOR 49 WK POST CARCINOGEN TREATMENT (STUDY DURATION: 52 WK), Species: HAMSTER, Strain/Sex: SYRIAN GOLDEN/FEMALE, Target Tissue: Type of Lesion: LUNG: ADENOCARCINOMA, Dose [Carcinogen]: 10 MG/KG BW 1/WK FOR FIRST 3 WK OF STUDY DURATION, Promoter: NONE
  tumour outcome (control, treated, inhibition, significance): 11/30 (37%), 8/29 (28%), 24%, not significant
Carcinogen: N-NITROSOBIS(2-OXOPROPYL)AMINE, 60599-38-4, Dose [Inhibitor]: 0, 0.2% IN DRINKING WATER FOR 49 WK POST CARCINOGEN TREATMENT (STUDY DURATION: 52 WK), Species: HAMSTER, Strain/Sex: SYRIAN GOLDEN/FEMALE, Target Tissue: Type of Lesion: LUNG: ADENOMA, Dose [Carcinogen]: 10 MG/KG BW 1/WK FOR FIRST 3 WK OF STUDY DURATION, Promoter: NONE
  tumour outcome (control, treated, inhibition, significance): 15/30 (50%), 18/29 (62%), -24%, not significant
Carcinogen: N-NITROSOBIS(2-OXOPROPYL)AMINE, 60599-38-4, Dose [Inhibitor]: 0, 0.2% IN DRINKING WATER FOR 49 WK POST CARCINOGEN TREATMENT (STUDY DURATION: 52 WK), Species: HAMSTER, Strain/Sex: SYRIAN GOLDEN/FEMALE, Target Tissue: Type of Lesion: LUNG: SQUAMOUS CELL CARCINOMA, Dose [Carcinogen]: 10 MG/KG BW 1/WK FOR FIRST 3 WK OF STUDY DURATION, Promoter: NONE
  tumour outcome (control, treated, inhibition, significance): 2/30 (7%), 0/29 (0%), 100%, not significant
Carcinogen: N-NITROSOBIS(2-OXOPROPYL)AMINE, 60599-38-4, Dose [Inhibitor]: 0, 0.2% IN DRINKING WATER FOR 49 WK POST CARCINOGEN TREATMENT (STUDY DURATION: 52 WK), Species: HAMSTER, Strain/Sex: SYRIAN GOLDEN/FEMALE, Target Tissue: Type of Lesion: PANCREAS (DUCTAL): ADENOCARCINOMA, Dose [Carcinogen]: 10 MG/KG BW 1/WK FOR FIRST 3 WK OF STUDY DURATION, Promoter: NONE
  tumour outcome (control, treated, inhibition, significance): 18/30 (60%), 18/29 (62%), -3%, not significant
Carcinogen: N-NITROSOBIS(2-OXOPROPYL)AMINE, 60599-38-4, Dose [Inhibitor]: 0, 0.2% IN DRINKING WATER FOR 49 WK POST CARCINOGEN TREATMENT (STUDY DURATION: 52 WK), Species: HAMSTER, Strain/Sex: SYRIAN GOLDEN/FEMALE, Target Tissue: Type of Lesion: THYROID: ADENOMA, Dose [Carcinogen]: 10 MG/KG BW 1/WK FOR FIRST 3 WK OF STUDY DURATION, Promoter: NONE
  tumour outcome (control, treated, inhibition, significance): 1/30 (3%), 0/29 (0%), 100%, not significant
